According to patent US8519136B2, “Aminopyridine derivatives having aurora a selective inhibitory action” (MSD K.K., priority 2008, dated 2013):
pIC50: −log10 of the molar value. Structures can show the parent of a compound that is named as a salt.

How the values were obtained:
[1] = test system: Human cervical cancer cells (HeLa S3); assay: Cell growth inhibitory effect, WST-8 method; type: cell-based; conditions: 72 h, HeLa S3, three days incubation, read-out: Cell growth inhibitory effect (HeLaS3) (IC50)
Experimental: Fetal calf serum (FCS) was purchased from Moregate Biotech, and DMEM medium was purchased from Invitrogen Corp. WST-8 was purchased from Kishida Chemical Co., Ltd.
(§1) Human cervical cancer cells (HeLa S3) were obtained from the American Type Culture Collection (ATCC).
Cells were suspended in a DMEM medium containing 10% FCS, and the cell suspension was dispensed to a 96-well plastic plate at a rate of 750 cells/100 microliters per well. The plate was incubated overnight in 5% CO2-95% air at 37° C. A drug was subjected to graded dilution in dimethylsulfoxide and further diluted with a DMEM medium containing 10% FCS. Then, the dilution was dispensed to the plate on which cells had been disseminated, at a rate of 100 microliters per well. The plate was incubated for further three days in 5% CO2-95% air at 37° C. Cell growth after incubation was measured by the WST-8 method (H. Tominaga, et al., Anal. Commun., 36, 47-50 (1999)). Here, the WST-8 method refers to a method in which 20 microliters of a WST-8 reagent solution is added to each well, incubation is conducted at 37° C. for 60 minutes, the plate is stirred, and the amount of formazan produced is measured by a colorimetric method to determine the inhibitory rate of the drug. The concentration for 50% growth inhibition (IC50, μM) of the compound was determined.

[2] = test system: Human cervical cancer cells (HeLa S3); assay: Effect by combined use of drugs in cells (with docetaxel), WST-8 method; type: cell-based; conditions: HeLa S3, three days; for inhibition at 0.3 µM: compound 300 nM alone
Experimental: Fetal calf serum (FCS) was purchased from Moregate Biotech, DMEM medium from Invitrogen Corp., docetaxel (tradename: Taxere) from Sigma-Aldrich, Inc., and WST-8 from Kishida Chemical Co., Ltd.
as §1
Cells were suspended in a DMEM medium containing 10% FCS, and the cell suspension was dispensed to two 96-well plastic plates at a rate of 750 cells/100 microliters per well. The plates were incubated overnight in 5% CO2-95% air at 37° C. A drug was subjected to graded dilution in dimethylsulfoxide and further diluted with DMSO or with a DMEM medium containing 10% FCS and also containing 0.6 nM docetaxel. Then, the dilutions were each dispensed to one of the plates on which cells had been disseminated, at a rate of 100 microliters per well. The final concentration of docetaxel at this stage was 0.3 nM. Also, the concentrations in the case of sole administration of the compound according to the invention were 0.003, 0.01, 0.03, 0.1, 0.3, 1, 3 and 10 μM. The plates were incubated for further three days in 5% CO2-95% air at 37° C. Cell growth after incubation was measured by the WST-8 method (H. Tominaga, et al., Anal. Commun., 36, 47-50 (1999)). Here, the WST-8 method refers to a method in which 20 microliters of a WST-8 reagent solution is added to each well, incubation is conducted at 37° C. for 60 minutes, the plate is stirred, and the amount of formazan produced is measured by a colorimetric method to determine the inhibitory rate of the drug. The growth inhibitory effects of docetaxel and of the compound according to the invention were determined, with the value obtained in sole treatment of DMSO being defined as 0%.

[3] = Homo sapiens, HeLa S3, 72 h, read-out: Cell growth inhibitory effect by sole administration of the compound of Example (%)
[4] = compound 300 nM + docetaxel 0.3 nM

Row | pIC50 [1] | SMILES | inhibition at 0.3 µM [2, 3] | Cell growth inhibitory effect by combined administration of docetaxel and the compound of Example (%) [2, 4] | inhibition at 0.1 µM ([2]; Homo sapiens, HeLa S3, 72 h, compound 100 nM alone, read-out: Cell growth inhibitory effect by sole administration of the compound of Example (%)) | Cell growth inhibitory effect by combined administration of docetaxel and the compound of Example (%) ([2]; compound 100 nM + docetaxel 0.3 nM)
1 | 6.11 | Cl.O=C(c1cccc(Cl)c1F)N1CCC(O)(Cc2cccc(Nc3cc[nH]n3)n2)CC1 [Example 2, 1-(3-chloro-2-fluorobenzoyl)-4-((6-(1H-pyrazol-3-ylamino)pyridin-2-yl)methyl)piperidin-4-ol hydrochloride] | 23.9% | 90.2% |  | 
2 | 5.76 | O=c1[nH]nc(C2(Cc3cccc(Nc4cc[nH]n4)n3)CCN(S(=O)(=O)c3ccccc3C(F)(F)F)CC2)o1 [Example 14, 5-(4-((6-(1H-pyrazol-3-ylamino)pyridin-2-yl)methyl)-1-((2-(trifluoromethyl)phenyl)sulfonyl)piperidin-4-yl)-1,3,4-oxadiazol-2(3H)-one trifluoroacetate] | 3.3% | 80.7% |  | 

Row | SMILES | pIC50 [1] | inhibition at 0.3 µM [2, 3] | Cell growth inhibitory effect by combined administration of docetaxel and the compound of Example (%) [2, 4] | inhibition at 0.1 µM ([2]; Homo sapiens, HeLa S3, 72 h, compound 100 nM alone, read-out: Cell growth inhibitory effect by sole administration of the compound of Example (%)) | Cell growth inhibitory effect by combined administration of docetaxel and the compound of Example (%) ([2]; compound 100 nM + docetaxel 0.3 nM)
3 | O=c1[nH]nc(C2(Cc3cccc(Nc4cc[nH]n4)n3)CCN(C(c3cccc(C(F)(F)F)c3)C(F)(F)F)CC2)o1 (stereo not drawn) [Example 19, 5-(4-((6-(1H-pyrazol-3-ylamino)pyridin-2-yl)methyl)-1-(2,2,2-trifluoro-1-(3-(trifluoromethyl)phenyl)ethyl)piperidin-4-yl)-1,3,4-oxadiazol-2(3H)-one trifluoroacetate] | 6.00 |  |  | 7.6% | 86.0%
